For the assay, the target named is T1, Human TRPC6 (Homo sapiens, UniProt Q9Y210).
T1 construct: expressed in transfected cells
T1 sequence (Q9Y210 1-931): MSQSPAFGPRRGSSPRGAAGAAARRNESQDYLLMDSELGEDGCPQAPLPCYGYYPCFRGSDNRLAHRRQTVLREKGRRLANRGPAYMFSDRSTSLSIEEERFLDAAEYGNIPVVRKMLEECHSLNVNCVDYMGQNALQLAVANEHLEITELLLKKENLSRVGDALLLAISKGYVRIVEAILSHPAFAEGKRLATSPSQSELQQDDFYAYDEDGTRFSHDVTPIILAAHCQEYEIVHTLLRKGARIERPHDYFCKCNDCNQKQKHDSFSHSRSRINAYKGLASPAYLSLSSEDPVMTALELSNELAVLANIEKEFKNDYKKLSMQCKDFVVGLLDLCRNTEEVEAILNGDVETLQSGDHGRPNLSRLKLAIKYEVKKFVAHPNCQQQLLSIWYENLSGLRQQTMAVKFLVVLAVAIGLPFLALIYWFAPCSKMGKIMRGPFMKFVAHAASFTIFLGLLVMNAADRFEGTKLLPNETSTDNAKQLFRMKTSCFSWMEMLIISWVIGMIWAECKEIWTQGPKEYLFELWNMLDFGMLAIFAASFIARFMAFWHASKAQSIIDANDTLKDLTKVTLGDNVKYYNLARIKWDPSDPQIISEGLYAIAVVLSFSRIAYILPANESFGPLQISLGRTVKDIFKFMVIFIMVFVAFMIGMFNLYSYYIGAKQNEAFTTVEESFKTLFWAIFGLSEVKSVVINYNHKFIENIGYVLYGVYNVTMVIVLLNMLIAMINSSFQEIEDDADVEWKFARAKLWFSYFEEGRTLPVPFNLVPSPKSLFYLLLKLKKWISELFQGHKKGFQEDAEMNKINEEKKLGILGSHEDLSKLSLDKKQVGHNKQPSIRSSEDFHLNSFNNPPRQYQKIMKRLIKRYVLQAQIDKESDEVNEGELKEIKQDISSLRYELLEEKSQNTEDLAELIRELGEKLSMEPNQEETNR
The assay is described as follows: Evaluation of TRPC6 channel inhibitory activity (1), FLIPR Calcium 5 Assay Kit, OAG stimulation (Compound Nos. 1-1293). It is filed as cell-based. A digest of the protocol:
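Calcium influx read by FLIPR fluorescence in cells stably expressing human TRPC6, dye-loaded 30 min. Compounds preincubated 20 min, then OAG stimulation at 30 μM final. Inhibition fitted by four-parameter logistic regression to give pIC50, reported as +/++/+++ categories.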

[1] abbreviates: Human TRPC6 stably-expressing cells, OAG 30 μM, FLIPR Calcium 5 Assay Kit, read-out: Inhibitory activity (pIC50 class) (converted).

Read-outs that look alike come from different tables or passages of the source.

These results are taken from patent publication US20230167073A1 (Teijin Pharma Limited, priority 2020, published 2023).

In the case of `Cc1nc(OCC(F)(F)F)cc(Oc2cc(C#N)ccc2-n2cc([C@@H](O)CN)cn2)n1` [Compound 268, 4-[4-[(1R)-2-amino-1-hydroxyethyl]pyrazol-1-yl]-3-[2-methyl-6-(2,2,2-trifluoroethoxy)pyrimidin-4-yl]oxybenzonitrile], the IC50 under setting [1] was 10 to 1000 nM.
As for `Cc1nc(Oc2cc(C#N)ccc2-n2cc([C@@H](O)CN)cn2)cc(OC2CCC2)n1` [Compound 269, 4-[4-[(1R)-2-amino-1-hydroxyethyl]pyrazol-1-yl]-3-(6-cyclobutyloxy-2-methylpyrimidin-4-yl)oxybenzonitrile], the IC50 under setting [1] is 10 to 1000 nM.
For the compound `Cc1nc(OCC2CCC2)cc(Oc2cc(C#N)ccc2-n2cc([C@@H](O)CN)cn2)n1` [Compound 270, 4-[4-[(1R)-2-amino-1-hydroxyethyl]pyrazol-1-yl]-3-[6-(cyclobutylmethoxy)-2-methylpyrimidin-4-yl]oxybenzonitrile], the IC50 under setting [1] was 10 to 1000 nM.
On to `Cc1nc(OCC2CC2(F)F)cc(Oc2cc(C#N)ccc2-n2cc([C@@H](O)CN)cn2)n1` (stereo partly drawn) [Compound 271, 4-[4-[(1R)-2-amino-1-hydroxyethyl]pyrazol-1-yl]-3-[6-[(2,2-difluorocyclopropyl)methoxy]-2-methylpyrimidin-4-yl]oxybenzonitrile], for which the IC50 under setting [1] is 10 to 1000 nM.
On to `Cn1nc(C2CCC2)cc1Oc1cc(C#N)ccc1-c1ncc(CCN)cn1` [Compound 272, 4-[5-(2-aminoethyl)pyrimidin-2-yl]-3-(5-cyclobutyl-2-methylpyrazol-3-yl)oxybenzonitrile], for which the IC50 under setting [1] was less than 10 nM.
For `Cn1nc(C2CCOCC2)cc1Oc1cc(C#N)ccc1-c1ncc(CCN)cn1` [Compound 273, 4-[5-(2-aminoethyl)pyrimidin-2-yl]-3-[2-methyl-5-(oxan-4-yl)pyrazol-3-yl]oxybenzonitrile], under setting [1], the IC50 was less than 10 nM.
Turning to `Cn1nc(-c2ccccc2)cc1Oc1cc(C#N)ccc1-c1ncc(CCN)cn1` [Compound 274, 4-[5-(2-aminoethyl)pyrimidin-2-yl]-3-(2-methyl-5-phenylpyrazol-3-yl)oxybenzonitrile], under setting [1], the IC50 was less than 10 nM.
As to `Cc1nc(Oc2cc(C#N)ccc2-c2ncc(CCN)cn2)cc(-c2ccccc2)n1` [Compound 275, 4-[5-(2-aminoethyl)pyrimidin-2-yl]-3-(2-methyl-6-phenylpyrimidin-4-yl)oxybenzonitrile], the IC50 under setting [1] is less than 10 nM.
`Cn1nc(C2CCC2)cc1Oc1cc(C#N)ccc1-c1ccc(C(O)CN)cn1` (stereo not drawn) [Compound 276, 4-[5-(2-amino-1-hydroxyethyl)pyridin-2-yl]-3-(5-cyclobutyl-2-methylpyrazol-3-yl)oxybenzonitrile]: the IC50 under setting [1] is less than 10 nM.
Turning to `N#Cc1ccc(-c2ncc(CCN)cn2)c(Oc2cnnc(-c3ccccc3)c2)c1` [Compound 277, 4-[5-(2-aminoethyl)pyrimidin-2-yl]-3-(6-phenylpyridazin-4-yl)oxybenzonitrile], the IC50 under setting [1] was less than 10 nM.
Turning to `Cn1nc(C2CCC2)cc1Oc1cc(C#N)ccc1-c1ncc(C(O)CN)cn1` (stereo not drawn) [Compound 278, 4-[5-(2-amino-1-hydroxyethyl)pyrimidin-2-yl]-3-(5-cyclobutyl-2-methylpyrazol-3-yl)oxybenzonitrile], under setting [1], the IC50 was less than 10 nM.
As for `Cc1nc(Oc2cc(C#N)ccc2-n2cc([C@@H](O)CNCC#N)cn2)cc(-c2ccccc2)n1` [Compound 279, 4-[4-[(1R)-2-(cyanomethylamino)-1-hydroxyethyl]pyrazol-1-yl]-3-(2-methyl-6-phenylpyrimidin-4-yl)oxybenzonitrile], the IC50 under setting [1] was more than 1000 nM.
Same read-out and setting: the value for `Cn1nc(C2CCC2)cc1Oc1cc(C#N)ccc1-c1ccc(C(O)CNCC#N)cn1` (stereo not drawn) [Compound 280, 4-[5-[2-(cyanomethylamino)-1-hydroxyethyl]pyridin-2-yl]-3-(5-cyclobutyl-2-methylpyrazol-3-yl)oxybenzonitrile] was 10 to 1000 nM; that for `Cn1nc(C2CCC2)cc1Oc1cc(C#N)ccc1-c1ncc(C(O)CNCC#N)cn1` (stereo not drawn) [Compound 281, 4-[5-[2-(cyanomethylamino)-1-hydroxyethyl]pyrimidin-2-yl]-3-(5-cyclobutyl-2-methylpyrazol-3-yl)oxybenzonitrile] was more than 1000 nM; that for `N#Cc1ccc(-n2cc(CCN)cn2)c(Oc2cnnc(N3CCOCC3)c2)c1` [Compound 282, 4-[4-(2-aminoethyl)pyrazol-1-yl]-3-(6-morpholin-4-ylpyridazin-4-yl)oxybenzonitrile] was 10 to 1000 nM.
As to `N#Cc1ccc(-n2cc(CCN)cn2)c(Oc2cnnc(N3CCCCC3)c2)c1` [Compound 283, 4-[4-(2-aminoethyl)pyrazol-1-yl]-3-(6-piperidin-1-ylpyridazin-4-yl)oxybenzonitrile], under setting [1], the IC50 was 10 to 1000 nM.
Turning to `N#Cc1ccc(-n2cc(CCN)cn2)c(Oc2cnnc(N3CCCC3)c2)c1` [Compound 284, 4-[4-(2-Aminoethyl)pyrazol-1-yl]-3-(6-pyrrolidin-1-ylpyridazin-4-yl)oxybenzonitrile], the IC50 under setting [1] was 10 to 1000 nM.
Same read-out and setting: the value for `Cn1nc(-c2ccccn2)cc1Oc1cc(C#N)ccc1-c1ncc(CCN)cn1` [Compound 285, 4-[5-(2-aminoethyl)pyrimidin-2-yl]-3-(2-methyl-5-pyridin-2-ylpyrazol-3-yl)oxybenzonitrile] was less than 10 nM.
As to `Cn1nc(C2CC2)cc1Oc1cc(C#N)ccc1-c1ccc(CCNCC#N)cn1` [Compound 286, 4-[5-[2-(cyanomethylamino)ethyl]pyridin-2-yl]-3-(5-cyclopropyl-2-methylpyrazol-3-yl)oxybenzonitrile], under setting [1], the IC50 is 10 to 1000 nM.
Turning to `Cn1nc(C2CCC2)cc1Oc1cc(C#N)ccc1-c1cnc(C(O)CN)cn1` (stereo not drawn) [Compound 287, 4-[5-(2-amino-1-hydroxyethyl)pyrazin-2-yl]-3-(5-cyclobutyl-2-methylpyrazol-3-yl)oxybenzonitrile], under setting [1], the IC50 was less than 10 nM.
As for `CCc1cc(Oc2cc(C#N)ccc2-c2ccc(CCN)cn2)n(C)n1` [Compound 288, 4-[5-(2-aminoethyl)pyridin-2-yl]-3-(5-ethyl-2-methylpyrazol-3-yl)oxybenzonitrile], the IC50 under setting [1] is less than 10 nM.
As for `Cn1nc(-c2ccccc2)cc1Oc1cc(C#N)ccc1-c1ccc(CN)cn1` [Compound 289, 4-[5-(aminomethyl)pyridin-2-yl]-3-(2-methyl-5-phenylpyrazol-3-yl)oxybenzonitrile], under setting [1], the IC50 was less than 10 nM.
Consider `Cn1nc(-c2ccccc2)cc1Oc1cc(C#N)ccc1-c1cnc(CN)cn1` [Compound 290, 4-[5-(aminomethyl)pyrazin-2-yl]-3-(2-methyl-5-phenylpyrazol-3-yl)oxybenzonitrile], for which the IC50 under setting [1] is 10 to 1000 nM.
For the compound `Cn1nc(-c2ccccc2)cc1Oc1cc(C#N)ccc1-c1cc2c(cn1)CNCC2` [Compound 291, 3-(2-methyl-5-phenylpyrazol-3-yl)oxy-4-(5,6,7,8-tetrahydro-2,7-naphthylidin-3-yl)benzonitrile], under setting [1], the IC50 is more than 1000 nM.
The same measure, in the same setting: the value for `Cn1nc(-c2ccccc2)cc1Oc1cc(C#N)ccc1-c1ncc2c(n1)CCNC2` [Compound 292, 3-(2-methyl-5-phenylpyrazol-3-yl)oxy-4-(5,6,7,8-tetrahydropyrido[4,3-d]pyrimidin-2-yl)benzonitrile] was 10 to 1000 nM; that for `CCc1cc(Oc2cc(C#N)ccc2-c2ncc(CCN)cn2)n(C)n1` [Compound 293, 4-[5-(2-aminoethyl)pyrimidin-2-yl]-3-(5-ethyl-2-methylpyrazol-3-yl)oxybenzonitrile] was less than 10 nM; that for `Cn1nc(C2CCC2)cc1Oc1cc(C#N)ccc1-c1ccc(C(F)(F)CN)cn1` [Compound 294, 4-[5-(2-amino-1,1-difluoroethyl)pyridin-2-yl]-3-(5-cyclobutyl-2-methylpyrazol-3-yl)oxybenzonitrile] was less than 10 nM.
In the case of `Cc1nc(Oc2cc(C#N)ccc2-c2ncc(CCN)cn2)cc(-c2ccccc2C#N)n1` [Compound 295, 4-[5-(2-aminoethyl)pyrimidin-2-yl]-3-[6-(2-cyanophenyl)-2-methylpyrimidin-4-yl]oxybenzonitrile], the IC50 under setting [1] was less than 10 nM.
Consider `Cn1nc(C2CC2)cc1Oc1cc(C#N)ccc1-c1ccc(C(N)C(=O)N2CCOCC2)cn1` (stereo not drawn) [Compound No. 487, 4-[5-(1-Amino-2-morpholin-4-yl-2-oxoethyl)pyridin-2-yl]-3-(5-cyclopropyl-2-methylpyrazol-3-yl)oxybenzonitrile], for which the IC50 under setting [1] is more than 1000 nM.
For `Cc1nc(Oc2cc(C#N)ccc2-c2ccc(CC3(N)COC3)cn2)cc(N2C3CCC2CC3)n1` [Compound No. 670, 4-[5-[(3-Aminooxetan-3-yl)methyl]pyridin-2-yl]-3-[6-(7-azabicyclo[2.2.1]heptan-7-yl)-2-methylpyrimidin-4-yl]oxybenzonitrile], the IC50 was less than 10 nM.
